Assay results published in US11161864B2, “Sting agonists” (Venenum Biodesign, LLC, priority 2018, dated 2021).

Legend:
[1] = target: AQ variant of truncated human STING protein, amino acids 155-379 (Homo sapiens (Human), UniProt Q86WV6, G230A/H232R/R293Q); test: Human AQ STING [3H] 2′,3′-cGAMP scintillation proximity competition binding assay; details: read-out: Human AQ Binding IC50
Source text: (§1) A human STING [^3H] 2′,3′-cGAMP scintillation proximity competition binding assay was utilized to detect binding of compounds to STING protein. […] The protein encoding plasmid contained a HIS tag, followed by an Avi tag and then a SUMO tag, which were followed by the STING coding sequence within the pET-28a (+) vector. The plasmid was transfected into a BL21 (DE3)/BirA E. coli co-expression strain. Protein was purified from the bacterial lysate using a cobalt-affinity column. The purified protein was dialyzed against PBS and then 20% glycerol was added prior to storage at −80° C.
(§2) 2′,3′-cGAMP in assay buffer (50 mM Tris pH 7.5, 100 mM NaCl, 0.1% Fatty Acid Free BSA). Test compounds (2.5 μL) were added to the plate first followed by a 25 μL mixture of STING protein, streptavidin PVT SPA beads (Perkin Elmer) and 10 μL [^3H] 2′,3′-cGAMP. Plates were incubated at room temperature for 18 hrs and read on a Wallac MicroBeta TriLux (Perkin Elmer).

[2] = system: STING signaling, RAW-Dual reporter cells; test: Measurement of mouse IFN-β (ELISA); format: cell-based
Source text: Mouse Interferon-β (IFN-β) in the supernatants of murine macrophages treated with STING activators was quantified using sandwich enzyme linked immunosorbent assay (ELISA). Briefly, IFN-β binds to plates coated with antibody and detection is accomplished using a detection antibody followed by streptavidin conjugated to horseradish peroxidase. Tetramethyl-benzidine is used as the substrate in this kit (PBL Assay Science). […] In this invention, mouse IFN-β ELISA is used to determine the potency of compound on STING pathway activation in mouse macrophages.
Murine macrophage derived cell line RAW-Dual reporter cells (Invivogen) were used to measure the IFN-β produced by STING signaling activation. Briefly, 20,000 cells in 27 μL were seeded into tissue culture treated 384-well plate that contained 3 μL of test compound. Cells were incubated at 37° C., in a 5% CO2 incubator for 5.5 hours. Supernatants from treated cells were diluted 20-fold and prior to measurement of IFN-β levels using ELISA kit (PBL Assay Science). 100 μL of diluted sample was added to ELISA plate. Plates were incubated at RT for 1 hour with shaking at 650 rpm. Post incubation, samples were aspirated from wells and the wells were washed 4 times. Diluted antibody (50 μL) was added to plates and incubated at RT for 30 minutes with shaking, followed by aspiration of antibody and 4× washes. Diluted HRP (horseradish peroxidase) solution (50 μL) was added and incubated for 10 minutes, followed by aspiration of the solution and 4× wash steps. After the final wash steps, plates were incubated with 100 μL of TMB (tetramethyl benzidine) substrate for 10 minutes, followed by addition of 100 μL of stop solution and plates were read on Envision plate reader for optical density.

[3] = system: STING pathway, THP1 cells; test: Human IFN-α/β induction assay (THP1 supernatants on HEK-Blue IFN-α/β reporter cells); format: cell-based; details: THP1 cells 5 hrs, HEK-Blue reporter cells 24 hrs
Method: Genetically engineered human type-1 Interferons (IFN-α/β) sensor cells-HEK Blue™ IFNα/β cells (Invivogen) were employed to measure the type-1 IFNs produced by THP1 cells that are treated with activators of STING. The human embryonic (HEK) Blue™ cells are specially designed to monitor the activation of JAK/STAT pathway induced by type 1 IFNs. Briefly, THP1 cells are treated with compounds for 5 hrs. In the second step, supernatants of THP1 cells are transferred to HEK Blue™ IFNα/β reporter cells and incubated for 24 hrs. The secreted embryonic alkaline phosphatase (SEAP) activity in the supernatants of HEK blue IFNα/3 reporter cells is measured and used to determine the quantities of IFNs.
HEK-Blue IFN-α/β reporter cells (Invivogen) were used to measure the secretion of IFN-α/β into culture supernatants of THP1 cells following STING pathway activation. In the first step, THP1 cells were cultured in presence of STING activators for 5 hrs at 37° C., in a 5% CO2 tissue culture incubator, which facilitates the release of IFN-α/β into the supernatants. In the second step, cell supernatants from THP1 cells were transferred to HEK-Blue IFN-α/β reporter cells and incubated at 37° C., in a 5% CO2 incubator for 24 hrs. HEK-Blue IFN-α/β reporter cells are specifically designed to monitor the activation of JAK-STAT pathway activation by type 1 IFNs. These cells express a secreted embryonic alkaline phosphatase (SEAP) reporter gene under the control of ISG54 promoter, which is a well-known interferon stimulatory gene activated by type 1 IFNs. Upon IFN-α/β stimulation, HEK-Blue IFN-α/β reporter cells activate the JAK-STAT pathway and subsequently the expression of the reporter gene. SEAP which is secreted in the supernatant is easily detectable using alkaline phosphatase detection medium (Quanti-Blue reagent from Invivogen).
These assays were run by adding 2 μL of compound stock solution to tissue culture treated 384-well plates with electronic pipettes. Compounds were diluted in autoclaved sterile water, initially spotted on the intermediate dilution plate and then to the assay plate. […]

[4] = target: murine STING protein (amino acids 154-378) (Mus musculus (Mouse), UniProt Q3TBT3); test: Murine STING [3H] 2′,3′-cGAMP scintillation proximity competition binding assay; details: read-out: Murine Binding IC50
Sequence of murine STING protein (amino acids 154-378) (Q3TBT3 154-378): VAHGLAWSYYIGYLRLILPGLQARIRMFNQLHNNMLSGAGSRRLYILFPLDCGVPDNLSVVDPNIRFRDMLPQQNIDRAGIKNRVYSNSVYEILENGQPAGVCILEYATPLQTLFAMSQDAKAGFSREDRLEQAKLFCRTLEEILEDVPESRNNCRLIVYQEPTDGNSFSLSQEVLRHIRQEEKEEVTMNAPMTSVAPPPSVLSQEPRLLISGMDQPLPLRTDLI

[5] = target: wild-type (WT) truncated human STING protein, amino acids 155-379 (Homo sapiens (Human), UniProt Q86WV6, H232R); test: Human WT STING [3H] 2′,3′-cGAMP scintillation proximity competition binding assay; details: read-out: Human WT Binding IC50
Sequence of wild-type (WT) truncated human STING protein, amino acids 155-379 (Q86WV6 155-379 H232R): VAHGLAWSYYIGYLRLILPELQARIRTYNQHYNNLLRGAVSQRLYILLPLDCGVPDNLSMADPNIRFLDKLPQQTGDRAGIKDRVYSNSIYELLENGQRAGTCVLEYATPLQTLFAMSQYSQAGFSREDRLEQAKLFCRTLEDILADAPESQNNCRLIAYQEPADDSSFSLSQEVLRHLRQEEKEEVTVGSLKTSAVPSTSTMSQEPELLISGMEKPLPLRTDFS
Source text: as §1, §2

CT-26 tumor = CT-26 tumor bearing mice, intra-tumoral treatment and re-challenge; details: 50 μg intra-tumoral Days 0, 3, 7

Sequence of AQ variant of truncated human STING protein, amino acids 155-379 (Q86WV6 155-379 G230A/H232R/R293Q): as the sequence (Q86WV6 155-379 H232R) above, with G76A, R139Q counted along it

Row | SMILES | IC50 [1] [µM] | IC50 [4] [µM] | IC50 [5] [µM] | also measured
1 | Nc1nc2c(ncn2[C@@H]2O[C@@H]3COP(=O)(S)OCCn4c(nc5cncnc54)COP(=O)(S)O[C@@H]2[C@@H]3F)c(=O)[nH]1 (single isomer, unassigned) [Example 1D] | < 1 | – | – | EC50 [2]: > 5 µM; EC50 ([3]; Homo sapiens, THP-1): < 5 µM
2 | Nc1nc2c(ncn2[C@@H]2O[C@@H]3COP(=O)(S)OCCn4c(nc5cncnc54)COP(=O)(S)O[C@@H]2C3(F)F)c(=O)[nH]1 (stereo partly drawn) [Example 36D, (1S,21R,23R)-23-(2-Amino-6-oxo-6,9-dihydro-1H-purin-9-yl)-24,24-difluoro-3,18-disulfanyl-2,4,17,19,22-pentaoxa-7,10,12,14-tetraaza-3lambda5,18lambda5-diphosphatetracyclo[19.2.1.06,14.08,13]tetracosa-6,8,10,12-tetraene-3,18-dione] | 1 to 9.99 | < 1 | 10 to 100 | –
3 | Nc1nc2c(ncn2[C@@H]2O[C@@H]3COP(=O)(S)OCCn4c(nc5c(N)ncnc54)COP(=O)(S)O[C@@H]2[C@@H]3F)c(=O)[nH]1 (single isomer, unassigned) [Example 7A] | 1 to 9.99 | < 1 | 10 to 100 | –
4 | CO[C@H]1[C@H]2OP(=O)(S)OCc3nc4cncnc4n3CCOP(=O)(S)OC[C@H]1O[C@H]2n1cnc2c(=O)[nH]c(N)nc21 (single isomer, unassigned) [Example 27B] | 1 to 9.99 | < 1 | 10 to 100 | –
5 | Nc1nc2ncn([C@@H]3O[C@@H]4COP(=O)(S)OCCn5c(nc6cc(Cl)cnc65)COP(=O)(S)O[C@@H]3[C@@H]4F)c2c(=O)[nH]1 (single isomer, unassigned) [Example 13B] | 10 to 100 | 1 to 9.99 | 10 to 100 | –
6 | Nc1nc2c(ncn2[C@@H]2O[C@@H]3COP(=O)(S)OCCCn4c(nc5cncnc54)COP(=O)(S)O[C@@H]2[C@@H]3O)c(=O)[nH]1 (stereo partly drawn) [Example 9, (1R,22R,24R,25R)-24-(2-Amino-6-oxo-6,9-dihydro-1H-purin-9-yl)-25-hydroxy-3,19-disulfanyl-2,4,18,20,23-pentaoxa-7,10,12,14-tetraaza-3lambda5,19lambda5-diphosphatetracyclo[20.2.1.06,14.08,13]pentacosa-6,8,10,12-tetraene-3,19-dione] | 1 to 9.99 | 1 to 9.99 | 10 to 100 | –
7 | Nc1ncnc2c1ncn2[C@@H]1O[C@@H]2COP(=O)([S-])O[C@@H]3[C@H](O)[C@@H](COP([O-])(=S)O[C@H]2[C@H]1O)O[C@H]3n1cnc2c(N)ncnc21.[Na+].[Na+] (stereo partly drawn) [ADU-S100, reference compound] | – | – | – | EC50 [2]: > 5 µM; Number of surviving mice (CT-26 tumor; Day 0): 10/10; Number of surviving mice (CT-26 tumor; Day 3): 10/10; Number of surviving mice (CT-26 tumor; Day 7): 10/10; Number of surviving mice (CT-26 tumor; Day 10): 10/10; Number of surviving mice (CT-26 tumor; Day 14): 10/10; Number of surviving mice (CT-26 tumor; Day 17): 10/10; Number of surviving mice (CT-26 tumor; Day 20): 10/10; Number of surviving mice (CT-26 tumor; Day 23): 7/10; Number of surviving mice (CT-26 tumor; Day 35): 1/10; animals with complete regression of the tumors (CT-26 tumor; by Day 30): None; EC50 [3]: > 10 µM
8 | Nc1nc2c(ncn2[C@@H]2O[C@@H]3COP(=O)(S)OCCn4c(nc5c(N)ncnc54)COP(=O)(S)O[C@@H]2[C@@H]3F)c(=O)[nH]1 (single isomer, unassigned) [Example 7C] | < 1 | < 1 | < 1 | –
